Laboratory results: the supplement of paper PMC4862054
“And” between values parts separate entries of the source, which are not always exact repeats. Identical values can stand only once.

Columns and labels:
Conditions in all cases: incubation time: 72 h
CAL-85-1 [1] = assay: normalised viability (% of control), CellTiter-Blue; higher = more viable cells (100 = DMSO, 0 = benzethonium chloride kill control)
Method: (§1)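 DSRT, CellTiter-Blue viability, 72 h incubation. Signal is normalised to DMSO and benzethonium chloride controls. Value is the normalised response at dose 1.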

MDA-MB-231 [2] = assay: as above
Method: as §1

HCC1143 [3] = assay: as above
Method: as §1

BT-549 [4] = assay: as above
Method: as §1

CAL-120 [5] = assay: as above
Method: as §1

HCC1599 [6] = assay: as above
Method: as §1

HDQ-P1 [7] = assay: as above
Method: as §1

DU-4475 [8] = assay: as above
Method: as §1

MDA-MB-468 [9] = assay: as above
Method: as §1

HCC1937 [10] = assay: as above
Method: as §1

CAL-51 [11] = assay: as above
Method: as §1

MFM-223 [12] = assay: as above
Method: as §1

SK-BR-3 [13] = assay: as above
Method: as §1

MDA-MB-453 [14] = assay: as above
Method: as §1

MDA-MB-436 [15] = assay: as above
Method: as §1

CAL-148 [16] = assay: as above
Method: as §1

BT-474 [17] = assay: as above
Method: as §1

Hs578T [18] = assay: as above
Method: as §1

CAL-85-1 [19] = assay: normalised response (% of control), CellTiter-Glo; higher = more viable cells (100 = DMSO, 0 = benzethonium chloride kill control)
Summary of the method: (§2)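 The table gives the normalised signal for a single concentration in each entry. Breast cancer cell lines were seeded (20 µl suspension) into 384-well plates holding compound at 5 concentrations in 10-fold steps over a compound-specific 10,000-fold range and incubated 72 h, then read for CellTox Green fluorescence (485/520 nm) and CellTiter-Glo luminescence. Normalisation on each plate used 0.1 % DMSO (100) and a positive kill control (0).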

MDA-MB-231 [20] = assay: as above
Summary of the method: as §2

HCC1143 [21] = assay: as above
Summary of the method: as §2

BT-549 [22] = assay: as above
Summary of the method: as §2

CAL-120 [23] = assay: as above
Summary of the method: as §2

HCC1599 [24] = assay: as above
Summary of the method: as §2

HDQ-P1 [25] = assay: as above
Summary of the method: as §2

DU-4475 [26] = assay: as above
Summary of the method: as §2

MDA-MB-468 [27] = assay: as above
Summary of the method: as §2

HCC1937 [28] = assay: as above
Summary of the method: as §2

CAL-51 [29] = assay: as above
Summary of the method: as §2

MFM-223 [30] = assay: as above
Summary of the method: as §2

SK-BR-3 [31] = assay: as above
Summary of the method: as §2

MDA-MB-453 [32] = assay: as above
Summary of the method: as §2

MDA-MB-436 [33] = assay: as above
Summary of the method: as §2

MCF-10A = assay: as above
Summary of the method: as §2

CAL-148 [34] = assay: as above
Summary of the method: as §2

BT-474 [35] = assay: as above
Summary of the method: as §2

Hs578T [36] = assay: as above
Summary of the method: as §2

Row | SMILES | normalised viability (CAL-85-1 [1]) | normalised viability (MDA-MB-231 [2]) | normalised viability (HCC1143 [3]) | normalised viability (BT-549 [4]) | normalised viability (CAL-120 [5]) | normalised viability (HCC1599 [6]) | normalised viability (HDQ-P1 [7]) | normalised viability (DU-4475 [8]) | normalised viability (MDA-MB-468 [9]) | normalised viability (HCC1937 [10]) | normalised viability (CAL-51 [11]) | normalised viability (MFM-223 [12]) | normalised viability (SK-BR-3 [13]) | normalised viability (MDA-MB-453 [14]) | normalised viability (MDA-MB-436 [15]) | normalised viability (CAL-148 [16]) | normalised viability (BT-474 [17]) | normalised viability (Hs578T [18]) [%] | normalised response (CAL-85-1 [19]) [%] | normalised response (MDA-MB-231 [20]) [%] | normalised response (HCC1143 [21]) [%] | normalised response (BT-549 [22]) [%] | normalised response (CAL-120 [23]) [%] | normalised response (HCC1599 [24]) [%] | normalised response (HDQ-P1 [25]) [%] | normalised response (DU-4475 [26]) [%] | normalised response (MDA-MB-468 [27]) [%] | normalised response (HCC1937 [28]) [%] | normalised response (CAL-51 [29]) [%] | normalised response (MFM-223 [30]) [%] | normalised response (SK-BR-3 [31]) [%] | normalised response (MDA-MB-453 [32]) [%] | normalised response (MDA-MB-436 [33]) [%] | normalised response (MCF-10A) [%] | normalised response (CAL-148 [34]) [%] | normalised response (BT-474 [35]) [%] | normalised response (Hs578T [36]) [%]
1 | Nc1cc(C(F)(F)F)c(-c2cc(N3CCOCC3)nc(N3CCOCC3)n2)cn1 [BKM-120] (1 nM) | 89.5% | 110% | 88.4% | 97.8% | 85.6% | 82.8% | 99% | 114% | 96.6% | 95.9% | 98% | 93% | 99.7% | 103% | 104% | 105% | 116% | 121 | – | – | – | – | – | – | – | – | – | – | – | – | – | – | – | – | – | – | –
2 | O=C(/C=C/c1cccc(S(=O)(=O)Nc2ccccc2)c1)NO [Belinostat] (1 nM) | 92.5% | 102% | 107% | 89.5% | 97.4% | 97.1% | 84.2% | 93.1% | 103% | 111% | 102% | 93.4% | 91.5% | 101% | 120% | 97.1% | 106% | 109 | 97.8 | 95.8 | 91.8 | 96.1 | 96.6 | 97.6 | 93.5 | 98.9 | 94.9 | 96.5 | 75.1 | 89.2 | 87.8 | 97 | 91.7 | 87 | 99.9 | 91 | 92.9
3 | COc1cc2ncnc(Nc3ccc(F)c(Cl)c3)c2cc1OCCCN1CCOCC1 [Gefitinib] (1 nM) | 85.3% and 81.5% | 94.2% and 90.6% | 73.7% and 90.5% | 120% and 111% | 77.2% and 85.9% | 85.7% and 96.3% | 108% and 86.3% | 104% and 98.6% | 90% and 110% | 91.6% and 89.4% | 108% and 107% | 89.3% and 83.4% | 87.4% and 97.4% | 97.3% and 100% | 92.2% and 90.9% | 107% and 106% | – | – | 101 | 97.2 | 102 | 94.8 | 97.6 | 99.2 | 94.4 | 99.3 | 105 | 91.6 | 93.1 | 105 | 108 | 109 | 85.5 | 98.8 | 107 | 97.7 | 99
4 | CCc1c2c(nc3ccc(OC(=O)N4CCC(N5CCCCC5)CC4)cc13)-c1cc3c(c(=O)n1C2)COC(=O)[C@]3(O)CC [Irinotecan] (1 nM) | 83% and 98.7% | 82.3% and 98.2% | 87.2% and 101% | 95.7% and 90.7% | – | – | 89% and 101% | 98.7% and 106% | 96.8% and 102% | – | 106% and 112% | 93.6% and 104% | 84.7% and 99.9% | – | 97.6% and 117% | 91.5% and 110% | 103% and 98% | – | 116 | 90.3 | 93.9 | 109 | 94.2 | 105 | 97.3 | 104 | 107 | 97.2 | 81.6 | 94 | 110 | 114 | 97.9 | 96.5 | 98.3 | 98.5 | 95.9
5 | S=P(N1CC1)(N1CC1)N1CC1 [Thio-TEPA] (10 nM) | 92.8% | 94.8% | 97.9% | 106% | 86.2% | 95.7% | 109% | 88.7% | 107% | 90% | 94% | 101% | 92.1% | 104% | 99.2% | 102% | 100% | 106 | – | – | – | – | – | – | – | – | – | – | – | – | – | – | – | – | – | – | –
